From patent US5457092A, “Methods of promoting bone growth in mammals comprising administration of modified parathyroid hormone” (Gesellschaft fur Biotechnologische Forschung mbH (GBF), priority 1987, dated 1995)

Tests used:
[1] = test system: chondrocytes from sterna of 16-day-old embryonic chicks; experiment: Stimulation of DNA synthesis in chondrocytes by PTH fragments (Table 1); assay type: cell-based, chick; details: for [^3 H]thymidine incorporation: 4 h, control 139 ± 6; for E/C: stimulated / non-induced control cells
Procedure: Chondrocytes were isolated from sterna of 16-day-old embryonic chicks according to J. Biol. Chem., 261 (1986) 7997-8001 (10; Yasui et al.) with some modifications. Collagenase was dissolved in Hanks' balanced salt solution (0.4 mM Na2 HPO4, 140 mN NaCl, 5.3 mM KCl, 0.4 mM MgSO4, 1.3 mM CaCl2, 0.4 mM KH2 PO4, 0.5 mM MglC2, 5 mM glucose, 0.05% gentamicin) at a concentration of 286 units/ml. Sterna were treated repeatedly for 30 min with collagenase solution at 37° C. Cells first released by this procedure were discarded because of their very poor responsiveness towards PTH. The collagenase treatment was subsequently repeated leading to a highly homogenous cell population of chondrocytes. The cells obtained by a second collagenase treatment were collected by centrifugation (1000 rpm, 10 min), washed twice with medium (Dulbecco's modified Eagle's medium, GIBCO, supplemented with NaHCO3 (45 mM), glutamine (2 mM), penicillin G/streptomycin (65 mg/1 and 100 mg/l, respectively), Hepes (10 mM, pH 7.2), and FCS (10% v/v) and counted.
The DNA synthesis rate was assayed in monolayer culture by the incorporation of ]^3 H]thymidine into perchloric acid-precipitable material. […] After 17 h, the medium was replaced by 200 μl of serum-free medium. After 4 days, chondrocytes were incubated for 4 h with the appropriate effector and 1μ Ci of [^3 H]thymidine. Subsequently, medium was removed and the cells were washed twice with 200 μl of phosphate-buffered saline (PBS: 137 mM NaCl, 2.7 mN KCl, 1.5 mM KH2 PO4, 0.8 mN Na2 HPO4, pH 7.0). Then cells were lysed by 100 μl of 2% (v/v) Nonidet P- 40 and 2% (w/v) sodium dodecyl sulfate treatment and the perchloric acid-insoluble material was precipitated by adding an equal volume of ice-cold 2% (w/v) perchloric acid in the presence of 1% herring sperm DNA as carrier. After storage for 10 min at -20° C., the precipitated material of each well was transferred to glass fiber filters with a Scatron--As semiautomatic cell harvester. Filters were dried at 80° C. for 20 min, transferred into scintillation vials, and 2 ml of scintillation mixture (scintillator 299; United Technology Pachard) were added. Radioactivity of the samples was determined with a β counter (Minimax; United Technology Pachard). Each test consisted of 5 up to 10 identically treated wells and was repeated at least twice with freshly prepared chondrocytes.
The incorporation of [^3 H]thymidine by non-induced control cells and by stimulated cells is shown by C and E, respectively. The results shown mean ±S.E. for n parallel cell cultures.

[2] = test system: osteoblast enriched rat embryo calvaria cell cultures; experiment: CK specific activity in rat embryo calvaria cell cultures; assay type: cell-based; details: 100 nM; 24 h; control 457 ± 46 nmol/min per mg of protein
Procedure: (§1) FIG. 10 is a graphical representation showing the dose dependent stimulation by bPTH (1-84) of osteoblast enriched rat embryo calvaria cell cultures. Experimental details for the determination of cyclic AMP (.quadrature.) (15 min after stimulation) and incorporation of [^3 H]thymidine into DNA ( ) and CK ( ) specific activity (24 h after stimulation) are given below. The results are means ±S.E.M., N≥5. In several cases the S.E.M. was less than the size of the symbol. Control values were: cyclic AMP, 25±5 pmol/mg of protein; DNA, 240±30 c.p.m./μg of DNA; CK, 200±20 nmol/min per mg of protein. Statistical significance of differences between treated and corresponding control groups by Student's T test: *P<0.05; **P<0.01.
(§2) Rat calvaria cultures were treated with fragments of PTH derived from the central portion of the molecule.

[3] = test system: ROS 17/2.8 osteoblast-like cells; experiment: Cyclic AMP production in ROS 17/2.8 osteoblast-like cells; assay type: cell-based, rat; details: 400 nM; control 29 ± 5.2 pmol/mg of protein
Procedure: When cultures of the widely used model for osteoblasts, the osteoblast-likeclone of rat osteosarcoma, ROS 17/2.8 (Endocrinology (Baltimore), 107 (1980) 1494-1503=12; Majeska et al.), were incubated with full-length PTH and PTH fragments (Table 4), cyclic AMP production was stimulated only by bPTH(1-84) and hPTH(1-34), whereas hPTH(25-39), hPTH(27-48), hPTH(28-48) and hPTH(34-47) were ineffective.

[4] = test system: osteoblast enriched rat embryo calvaria cell cultures; experiment: Cyclic AMP production in rat embryo calvaria cell cultures; assay type: cell-based; details: 100 nM; 15 min; control 29 ± 2.9 pmol/mg of protein
Procedure: as §1, §2

[5] = test system: ROS 17/2.8 osteoblast-like cells; experiment: CK specific activity in ROS 17/2.8 osteoblast-like cells; assay type: cell-based, rat; details: 400 nM; control 698 ± 70 nmol/min per mg of protein
[6] = test system: osteoblast enriched rat embryo calvaria cell cultures; experiment: DNA synthesis ([3H]thymidine incorporation) in rat embryo calvaria cell cultures; assay type: cell-based
Procedure: as §1

[7] = test system: ROS 17/2.8 osteoblast-like cells; experiment: DNA synthesis in ROS 17/2.8 osteoblast-like cells; assay type: cell-based, rat; details: 400 nM; control 392 ± 58 c.p.m./μg of DNA

Substance: hPTH(28-47): PTH fragment 28-47, human source (LQDVHNFVALGAPLAPRDAG; Parathyroid hormone; UniProt P01270 59-78, looked up, fragment)
- [^3 H]thymidine incorporation ([1]; 4.5 × 10^-5 mol/l): 276 ± 36 cpm
- E/C ([1]; 4.5 × 10^-5 mol/l): 1.99
- [^3 H]thymidine incorporation ([1]; 4.5 × 10^-6 mol/l): 202 ± 17 cpm
- E/C ([1]; 4.5 × 10^-6 mol/l): 1.45
- [^3 H]thymidine incorporation ([1]; 4.5 × 10^-7 mol/l): 205 ± 22 cpm
- E/C ([1]; 4.5 × 10^-7 mol/l): 1.47
- [^3 H]thymidine incorporation ([1]; 4.5 × 10^-8 mol/l): 196 ± 25 cpm
- E/C ([1]; 4.5 × 10^-8 mol/l): 1.41
- CK specific activity, effect of fragment (experimental value/control value) [2]: 2.18 ± 0.12
- Cyclic AMP, effect of fragment (experimental value/control value) [3]: 1.03 ± 0.16
- Cyclic AMP concentration, effect of fragment (experimental value/control value) [4]: 0.52 ± 0.39
- CK specific activity, effect of fragment (experimental value/control value) [5]: 1.66 ± 0.11
- stimulation of DNA synthesis (in words) [6]: less
- [3H)Thymidine incorporation, effect of fragment (experimental value/control value) ([6]; 100 nM, 24 h, control 624 ± 73 c.p.m./μg of DNA): 2.11 ± 0.09
- [^3 H]Thymidine incorporation, effect of fragment (experimental value/control value) [7]: 1.44 ± 0.11
